Among the test systems are COLO 205; T47D; KM12; BT-549; U-251; A549; DLD-1; NCI/ADR-RES; DMS-273; SK-MEL-28; HL-60; NCI-H522; OVCAR-3; NCI-H460; NCI-H23; RPMI-8226; LOX IMVI; Malme-3M; RXF 393; LXFL 529.
Common to all, as to assay: DTP human tumour cell line panel, 48 h

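Five compound concentrations were applied to cells in 96-well plates for 48 hours; endpoints were derived by simple linear interpolation of the resulting dose-response curve. GI50: concentration for 50% inhibition of growth.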 Calls of active or inactive are those of the source. No stated cut-off is given here; in the data, active = GI50 up to about 1.1 µM and inactive = higher.

The GI50 is the concentration giving 50% growth inhibition.

Turning to `O=C1N[C@@H]([C@H]2CC[C@H](Cl)CN2)C(=O)N[C@H]1[C@H]1CC[C@H](Cl)CN1`, the GI50 with COLO 205 is 1.99 µM (inactive); with T47D it was 0.297 µM (active); in the assay with KM12, 3.3 µM (inactive); in the assay with BT-549, 1.63 µM (inactive); in the assay on U-251, 0.406 µM (active); in the assay with A549, 0.248 µM (active). Besides, the GI50 is 4.92 µM (inactive) with DLD-1; 0.902 µM (active) in the assay with NCI/ADR-RES; 0.205 µM (active) in the assay on DMS-273; 4.32 µM (inactive) in the assay on SK-MEL-28; 0.1 µM (active) with HL-60; 0.706 µM (active) in the assay with NCI-H522. Further, the GI50 is 1.8 µM (inactive) with OVCAR-3; 0.116 µM (active) in the assay on NCI-H460; 0.292 µM (active) in the assay with NCI-H23; 1.32 µM (inactive) in the assay on RPMI-8226; 0.237 µM (active) with LOX IMVI; 0.836 µM (active) in the assay with Malme-3M. Besides, the GI50 in the assay with RXF 393 is 2.04 µM (inactive).

For the compound `O=C1c2ccccc2C(=O)c2[nH]cnc21`, the GI50 was 53.8 µM (inactive) in the assay with KM12; 73.8 µM (inactive) with U-251; 55.3 µM (inactive) with A549; 27 µM (inactive) in the assay on DLD-1; 46.8 µM (inactive) with DMS-273; > 100 µM (inactive) in the assay with SK-MEL-28. Moreover, the GI50 was 23.6 µM (inactive) in the assay on HL-60; 34 µM (inactive) in the assay on NCI-H522; 21.5 µM (inactive) with OVCAR-3; 32.1 µM (inactive) with NCI-H460; 30.2 µM (inactive) in the assay with NCI-H23; 20 µM (inactive) in the assay on Malme-3M. Besides, in the assay on RXF 393, the GI50 is > 100 µM (inactive).

With `CCOC(=O)C1Cc2[nH]c3ccccc3c2C(C)C1C` (centres undefined), the GI50 in the assay on COLO 205 is 17.3 µM (inactive); in the assay on KM12, 17 µM (inactive); in the assay with U-251 it was 18.5 µM (inactive); in the assay on A549, 14.1 µM (inactive); in the assay with DLD-1, 15.8 µM (inactive); with DMS-273, 15.1 µM (inactive). In addition, the GI50 in the assay with SK-MEL-28 is 17.1 µM (inactive); with NCI-H522 it was 12.2 µM (inactive); in the assay on OVCAR-3 it was 15.6 µM (inactive); in the assay on LXFL 529, 19.9 µM (inactive); in the assay with NCI-H460 it was 17.3 µM (inactive); in the assay with NCI-H23, 13.5 µM (inactive). Besides, the GI50 was 14.8 µM (inactive) with LOX IMVI and 16.9 µM (inactive) in the assay on Malme-3M.

For the compound `Nc1nc(-c2ccco2)cc(-c2ccc(CO)o2)n1`, the GI50 with COLO 205, in the assay on KM12, with A549, in the assay on DMS-273, in the assay with SK-MEL-28 and in the assay on HL-60 was > 100 µM (inactive) each time. The GI50 with NCI-H522 was 85.5 µM (inactive); in the assay on OVCAR-3, > 100 µM (inactive); in the assay with LXFL 529, > 100 µM (inactive); with NCI-H460 it was > 100 µM (inactive); in the assay with NCI-H23 it was > 100 µM (inactive); with RPMI-8226, 41.4 µM (inactive). In addition, the GI50 in the assay with LOX IMVI, with Malme-3M and in the assay with RXF 393 was > 100 µM (inactive) throughout.

Regarding `O=C1C[C@@H]2[C@@H](c3ccccc3)[C@@H]3C(=O)c4ccccc4NC(=O)[C@H]3[C@]2(O)c2ccccc2N1`, the GI50 in the assay with COLO 205, in the assay with KM12, in the assay with U-251, with A549, in the assay on DMS-273 and with SK-MEL-28 was > 100 µM (inactive) each time. Further, the GI50 in the assay with HL-60, in the assay with NCI-H522, in the assay on OVCAR-3, in the assay on LXFL 529, in the assay with NCI-H460 and with NCI-H23 was > 100 µM (inactive) each time. In addition, the GI50 in the assay on RPMI-8226, in the assay on LOX IMVI, in the assay on Malme-3M and with RXF 393 was > 100 µM (inactive) throughout.

Take `O=C(C=C1SCCS1)/C=C\c1ccc(Cl)cc1`: the GI50 in the assay on COLO 205 is > 100 µM (inactive); in the assay with KM12, 87.1 µM (inactive); in the assay on A549 it was > 100 µM (inactive); in the assay on DLD-1, > 100 µM (inactive); in the assay with DMS-273, 99.3 µM (inactive); with SK-MEL-28, > 100 µM (inactive). The GI50 in the assay on HL-60 was 56.9 µM (inactive); in the assay with NCI-H522 it was > 100 µM (inactive); with OVCAR-3, > 100 µM (inactive); in the assay with LXFL 529 it was 69.7 µM (inactive); with NCI-H23, > 100 µM (inactive); in the assay on RPMI-8226, 31.5 µM (inactive). The GI50 with LOX IMVI is 53.8 µM (inactive); in the assay on Malme-3M it was > 100 µM (inactive).

`CC12C/C(=C\c3ccccc3)C(=O)C3C1CCCC32`: the GI50 in the assay with COLO 205 was 87.1 µM (inactive); in the assay with KM12, 55.1 µM (inactive); in the assay on U-251, 61.4 µM (inactive); with A549, > 100 µM (inactive); in the assay with DLD-1, 79.3 µM (inactive); in the assay on DMS-273, 42.6 µM (inactive). Further, the GI50 is > 100 µM (inactive) in the assay on SK-MEL-28; 21.5 µM (inactive) with HL-60; 26.5 µM (inactive) with NCI-H522; 74.6 µM (inactive) with OVCAR-3; 56.9 µM (inactive) in the assay on LXFL 529; > 100 µM (inactive) in the assay with NCI-H460. Further, the GI50 is > 100 µM (inactive) in the assay on NCI-H23, 34.2 µM (inactive) in the assay with RPMI-8226, 72.8 µM (inactive) with LOX IMVI and > 100 µM (inactive) in the assay on Malme-3M.

On to `CS(=O)(=O)N(CCC#N)c1ccc(/C=N/NC(=O)CC(=O)Nc2cccc(Cl)c2)cc1`, for which the GI50 in the assay with COLO 205, with KM12, in the assay on U-251, with A549, in the assay on DLD-1 and with DMS-273 was > 100 µM (inactive) each time. Also, the GI50 with SK-MEL-28, in the assay with NCI-H522, in the assay with OVCAR-3, with LXFL 529, in the assay on NCI-H460 and with NCI-H23 was > 100 µM (inactive) each time. Besides, the GI50 with RPMI-8226, in the assay with LOX IMVI, with Malme-3M and with RXF 393 was > 100 µM (inactive) throughout.

As for `c1cc2nnsc2s1`, the GI50 in the assay on COLO 205 was 42.3 µM (inactive); in the assay with KM12 it was > 100 µM (inactive); in the assay with U-251 it was > 100 µM (inactive); with DLD-1, 60.4 µM (inactive); with DMS-273, 70.6 µM (inactive); in the assay on SK-MEL-28 it was > 100 µM (inactive). Also, the GI50 in the assay with HL-60 was > 100 µM (inactive); in the assay with NCI-H522, > 100 µM (inactive); in the assay on LXFL 529 it was 90.8 µM (inactive); in the assay on NCI-H460, > 100 µM (inactive); in the assay on NCI-H23, > 100 µM (inactive); in the assay on RPMI-8226 it was 93.5 µM (inactive). Further, the GI50 in the assay with LOX IMVI was 60 µM (inactive); in the assay with Malme-3M it was > 100 µM (inactive).

As to `CC(=O)OCCOCNC(=S)N/N=C/c1ccc(Br)s1`, the GI50 in the assay with COLO 205 was > 100 µM (inactive); in the assay with KM12, > 100 µM (inactive); with U-251 it was > 95.3 µM (inactive); in the assay on A549, > 88.7 µM (inactive); with DLD-1 it was > 81.8 µM (inactive); in the assay with DMS-273, > 87.7 µM (inactive). The GI50 with SK-MEL-28 was > 100 µM (inactive); in the assay with NCI-H522 it was 8.17 µM (inactive); in the assay with OVCAR-3, > 89.1 µM (inactive); in the assay with LXFL 529, > 70.3 µM (inactive); in the assay on NCI-H460 it was 78.3 µM (inactive); in the assay with NCI-H23, > 100 µM (inactive). The GI50 with RPMI-8226 was 5.08 µM (inactive); in the assay on LOX IMVI, 77.1 µM (inactive); in the assay with Malme-3M, > 100 µM (inactive); in the assay with RXF 393, > 100 µM (inactive).

Take `Nc1ccccc1C(=O)/C=C/c1ccccc1O`: the GI50 in the assay on COLO 205 was > 100 µM (inactive); with KM12, 31 µM (inactive); with U-251, 95.9 µM (inactive); with A549, 45.5 µM (inactive); in the assay with DLD-1 it was 47.2 µM (inactive); in the assay with SK-MEL-28, > 100 µM (inactive). For the same compound, the GI50 is 22.8 µM (inactive) in the assay with HL-60; 34.5 µM (inactive) in the assay with NCI-H522; 31.4 µM (inactive) in the assay with OVCAR-3; 39.2 µM (inactive) in the assay with LXFL 529; 67.1 µM (inactive) in the assay with NCI-H460; 56 µM (inactive) in the assay with NCI-H23. The GI50 in the assay on RPMI-8226 is 27.5 µM (inactive); in the assay with LOX IMVI it was 43.8 µM (inactive); in the assay with Malme-3M, > 100 µM (inactive); in the assay on RXF 393, 61.1 µM (inactive).

On to `NCCN1C(=O)C2C3c4ccccc4C(c4ccccc43)C2C1=O` (centres undefined), for which the GI50 with COLO 205, with KM12, in the assay with U-251, in the assay on A549, with DLD-1 and in the assay with DMS-273 was > 100 µM (inactive) each time. Further, the GI50 in the assay on SK-MEL-28, in the assay with HL-60, in the assay with NCI-H522, with OVCAR-3, with LXFL 529 and with NCI-H460 was > 100 µM (inactive) throughout. Moreover, the GI50 with NCI-H23, with RPMI-8226 and in the assay with Malme-3M was > 100 µM (inactive) each time.

As to `CC1CCc2c(sc3ncnc(N/N=C/c4ccc(Cl)c(Cl)c4)c23)C1` (centres undefined), the GI50 is 6.17 µM (inactive) in the assay on COLO 205; 5.2 µM (inactive) in the assay with U-251; 4.13 µM (inactive) with A549; 9.33 µM (inactive) in the assay on DLD-1; 7.98 µM (inactive) with DMS-273; 21.2 µM (inactive) in the assay with SK-MEL-28. Besides, the GI50 was 22.2 µM (inactive) in the assay on HL-60; 5.45 µM (inactive) in the assay with NCI-H522; 17 µM (inactive) in the assay on OVCAR-3; 7.4 µM (inactive) in the assay on NCI-H460; 13.2 µM (inactive) in the assay with NCI-H23; 13.2 µM (inactive) in the assay with RPMI-8226. The GI50 in the assay with LOX IMVI was 11.9 µM (inactive); in the assay on Malme-3M, 31.2 µM (inactive); in the assay on RXF 393, 20.9 µM (inactive).

(Values after ChEMBL document CHEMBL1201862, “PubChem BioAssay data set” (2004).)
